# Results as given in publication PMC11612144, “Deep quantification of substrate turnover defines protease subsite cooperativity” (Molecular Systems Biology, 2024).
# No end group written: not given here.
# Key:
# [1] = target: C. elegans DPF-3 (DPP8/9-orthologue), full-length, recombinant (C. elegans); test: cryo-EM structure; single particle cryo-EM of full-length DPF-3 alone (apo), ~0.3 mg/ml and 2.5% glycerol, grids blotted at 4 °C; homodimer
# GLP-1 receptor = conditions: compared with GLP-1(7-37); ref Mentlein et al, 1993; Muller et al, 2019; cited from earlier work
# Description: To achieve clinical utility, GLP ...
# hDPP4 = target: T1, hDPP4 (Homo sapiens, UniProt P27487); test: In vitro protease assay by mass spectrometry: cleavage of synthetic GLP-1 N-terminal peptides by hDPP4 over time; format: in vitro ADME; conditions: hDPP4 1 µg in 100 µl, peptide 1 pmol/µl, 21 °C, LC-MS, Fig. 4A; for product formation upon digestion with hDPP4 (in words): 30-120 min, three technical replicates
# T1 construct: purchased Abcam ab79138
# Description: Synthetic peptides representing either wild-type or mutated GLP-1 were purchased from Thermo Fisher Scientific and their cleavage by DPP4 was measured over time. Briefly, the lyophilized peptides were dissolved in TBS buffer supplemented with 2 mM TCEP to obtain a stock solution with a final concentration of 0.1 nmol/µl. 1ug of DPP4 and each peptide at a final concentration of 1 pmol/µl were used in reactions at a final volume of 100 µl. To distinguish the products, the four peptides were pooled into two groups. One group contained GLP-1 wt (HAE ([…])) & GLP-1 H1D, E3P (DAP ([…])) and the other group GLP-1 H1D (DAE ([…])) & GLP-1 E3P (HAP ([…])). The assay was performed at 21 °C, aliquots (20 µl) were taken out at the indicated times and mixed with 180 µl of 0.1% trifluoroacetic acid, 2 mM TCEP, 2% acetonitrile in water to stop the reaction.
# The peptides were analyzed by capillary liquid chromatography tandem mass spectrometry (LC-MS) using an Orbitrap Fusion LUMOS, a VanquishNeo-nLC, and a 75umx15cm EasyC18 column kept at 45 °C and mounted on a easy source (Thermo Fisher Scientific). Peptides were loaded on a 0.3 × 5 mm C18 trap using a back flash method for elution. Peptides were separated with a gradient of 0–0.2 min 2–6%B in A, 0.2–4.2 min 6–21%, 4.2–6.2 min 21–30%, 6.2–6.7 min 30–36%, 6.7–7.2 min 36–45%, 7.2–7.5 min 45%-100%, 7.5-12 min 100%. A: 0.1% FA in H2O; B: 0.1% FA, 80% MeCN in H2O, at room temperature and the flow rate during the gradient was 200 nl/min and for the last 4.4 min 350 nl/min. The data were acquired using 120,000 resolution for the peptide measurements in the Orbitrap and a top T (1.5 s) method with HCD fragmentation for each precursor and fragment measurement in the ion trap following the manufacturer guidelines (Thermo Scientific).
# T1 sequence (P27487 whole entry): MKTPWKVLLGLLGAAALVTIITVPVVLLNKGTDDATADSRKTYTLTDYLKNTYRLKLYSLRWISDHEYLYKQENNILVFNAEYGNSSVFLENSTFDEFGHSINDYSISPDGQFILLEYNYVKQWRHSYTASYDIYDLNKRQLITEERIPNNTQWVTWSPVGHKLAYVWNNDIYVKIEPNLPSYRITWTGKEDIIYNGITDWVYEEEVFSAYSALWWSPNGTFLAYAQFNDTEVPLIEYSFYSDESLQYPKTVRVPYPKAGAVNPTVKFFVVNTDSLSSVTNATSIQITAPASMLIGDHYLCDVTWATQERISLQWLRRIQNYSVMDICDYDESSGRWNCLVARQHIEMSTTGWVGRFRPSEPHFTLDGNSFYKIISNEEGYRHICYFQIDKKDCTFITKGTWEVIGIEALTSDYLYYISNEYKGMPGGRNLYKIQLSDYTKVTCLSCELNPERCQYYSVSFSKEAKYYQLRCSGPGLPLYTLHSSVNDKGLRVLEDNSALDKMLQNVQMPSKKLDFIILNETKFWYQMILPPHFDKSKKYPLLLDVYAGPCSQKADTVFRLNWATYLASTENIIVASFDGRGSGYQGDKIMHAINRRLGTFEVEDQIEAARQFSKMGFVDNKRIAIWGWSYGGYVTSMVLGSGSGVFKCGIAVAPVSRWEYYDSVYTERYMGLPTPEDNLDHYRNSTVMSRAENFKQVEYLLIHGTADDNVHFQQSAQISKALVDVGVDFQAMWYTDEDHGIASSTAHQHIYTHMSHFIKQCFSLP
Substance,product formation upon digestion with hDPP4 (in words) (hDPP4),other results
"C. elegans DPF-3 (DPP8/9-orthologue), full-length, recombinant (enzyme)",–,stoichiometry N [1]: 2
"GLP-1(9-37): DPP4-processed GLP-1 peptide (EGTFTSDVSSYLEGQAAKEFIAWLVKGRG; Glucagon-like peptide 1; UniProt P01275 100-128, looked up, fragment)",–,affinity to its receptor (in words) (GLP-1 receptor): reduced affinity
HAPGTFTSDVSR [HAP],completely abrogated product formation,–
DAPGTFTSDVSR [DAP],completely abrogated product formation,–
"HAEGTFTSDVSR [HAE, reference compound]",–,time within which product formation was essentially complete (hDPP4): ≤ 30 min
DAEGTFTSDVSR [DAE],greatly decreased product levels at all time points and continued product accumulation over 120 min,–
